Source: article PMC7552967, “Anti-Melanoma Activities of Artemisone and Prenylated Amino-Artemisinins in Combination With Known Anticancer Drugs” (Frontiers in Pharmacology, 2020)

Experiments:
[1] = system: HaCat normal keratinocytes; experiment: MTT cell viability assay, HaCat; assay type: cell-based, human; details: Homo sapiens, HaCaT, 24 h, combinations 1:1, mean ± SD, read-out: HaCat IC50
Excerpt: The human cell lines TK10 (human kidney adenocarcinoma), UACC62 (human melanoma) and MCF7 (human breast adenocarcinoma) were obtained from the National Cancer Institute (NCI) as part of a panel widely studied for drug screening and molecular target identification. […] The nontumorigenic human immortalized keratinocyte (HaCaT) cells were a kind donation by the School of Anatomical Sciences, Faculty of Health Sciences, University of the Witwatersrand, South Africa. […] All reagents were of analytical grade and were obtained from Merck (Darmstadt, Germany) unless stated otherwise. Cells were cultured in Dulbecco’s modified essential medium (DMEM; Hyclone, GE healthcare, South Logan, UT, USA) containing 10% fetal bovine serum (FBS), 1% penicillin/streptomycin, 1% 200 mM L-Glutamine and 1% nonessential amino acids (Lonza, Basel, Switzerland) at 37°C in a humidified atmosphere of 5% CO2. Stock solutions of the compounds were prepared in dimethyl sulfoxide (DMSO). All subsequent dilutions were prepared in serum-free DMEM and vehicle controls were included in all experiments
The growth inhibitory effects of the compounds were tested in the 3-cell line panel consisting of TK10 (renal), UACC62 (melanoma) and MCF7 (breast) cancer cells by Sulforhodamine B (SRB) assay. […] Compounds prepared in DMSO were tested at 0.01–100 µM serial dilutions to establish initial inhibitory concentrations. […] After 24 h exposure to compounds, growth medium was removed, cells rinsed twice with 1 ml of phosphate buffered saline (PBS) and 100 µl fresh serum-free medium containing 5 mg/ml MTT solution was added MTT solution was prepared fresh for each analysis). Cells were then incubated for 4 h at 37°C, after which the MTT was removed and substituted with 100 µl dimethyl sulfoxide (DMSO) to dissolve the formazan crystals for an h at 37°C. After incubation, cell viability was determined using a microplate reader (BioTek®, Vermont, USA) at an excitation wavelength of 560 nm and emission wavelength of 630 nm with DMSO measured as a blank. Cell viability was expressed as a percentage relative to the untreated control, which is assumed to be 100% viable. For a positive control, cells were treated with 0.01% Triton-X 100 (Sigma-Aldrich, St Louis, MO, USA) for a period of 4 h. Using the MTT assay data, IC50 values were calculated using GraphPad Prism 8. Data were normalized to the positive (alleged to be 0% viable) and negative controls (presumed to be 100% viable), followed by the log-transformation of the concentration values. […] A crude therapeutic index (fold decrease in IC50 value) was calculated as the IC50 of the noncancerous cell-line/IC50 of the cancerous cell line. […] Drug interactions were evaluated for synergism, additivity or antagonism using multiple drug effect analysis, based on the median-principle. Cells were treated with the drug combinations for 24 h and analyzed. The CompuSyn (ComboSyn, Inc. NJ, USA) software package was used to generate the median-effect plots and combination index plots. […] All experiments were performed at least in triplicate and repeated independently.
Next, the quantitative colorimetric MTT assay was used to determine in vitro cell viability with A375 (melanoma) and HaCat (nonmalignant keratinocyte) cells. […] The IC50 was used to determine a crude therapeutic index (fold increase or decline in IC50).

[2] = system: HaCat normal keratinocytes; experiment: LDH release membrane integrity assay, HaCat; details: compounds at their IC50 concentrations, 24 h; combinations 1:1; relative to maximum release
Excerpt: In order to determine cell membrane integrity, the CytoTox-ONE™ Homogeneous Membrane Integrity Assay (Promega, Madison, WO, USA) was employed. This fluorometric assay measures the release of LDH from cells with damaged cell membranes. […] The manufacturer’s instructions were followed to determine the fluorescence at an excitation wavelength of 560 nm and an emission wavelength of 590 nm. In order to calculate the percentage cytotoxicity, the average fluorescent values of the background medium were subtracted from all average fluorescent values of the experimental samples and the positive control. Cytotoxicity is expressed as a percentage relative to the positive control, which is assumed to be responsible for 100% LDH release. The fold increase in LDH release was taken as the indication of the selectivity toward melanoma cell membranes, calculated as the […]. All experiments were performed at least in triplicate and independently repeated. Statistical significant differences were calculated with one-way ANOVA.
Results are expressed relative to the untreated control and the maximum release sample, which was set as having 0% and 100% LDH release respectively. The LDH released from the nonmalignant HaCat cells and the A375 melanoma cells was then used to deduce the selectivity of the compounds against melanoma cell membranes.

Row | Compound | CC50 [1] [µM] | HaCat (% LDH release) [2] [%]
1 | C[C@@H]1CC[C@H]2[C@@H](C)C(=O)O[C@@H]3O[C@@]4(C)CC[C@@H]1[C@]32OO4 [Artemisinin 2, artemisinin] | 381 ± 5.36 | 18 ± 0.84
2 | C[C@H]1[C@H](N2CCS(=O)(=O)CC2)O[C@@H]2O[C@@]3(C)CC[C@H]4[C@H](C)CC[C@@H]1[C@@]24OO3 [Artemisone 4, artemisone] | 268.8 ± 1.97 | 19 ± 0.79
3 | CC(C)=CCC/C(C)=C/CC/C(C)=C/CN1CCN([C@@H]2O[C@@H]3O[C@@]4(C)CC[C@H]5[C@H](C)CC[C@@H]([C@H]2C)[C@@]35OO4)CC1 [Farnesylpiperazine-DHA 7, farnesylpiperazine-DHA] | 70.6 ± 1.07 | 18 ± 0.67
4 | CC(C)=CCC/C(C)=C/CN1CCN([C@@H]2O[C@@H]3O[C@@]4(C)CC[C@H]5[C@H](C)CC[C@@H]([C@H]2C)[C@@]35OO4)CC1 [Geranylpiperazine-DHA 6, geranylpiperazine-DHA] | 106 ± 3.99 | 17 ± 0.95
